In US20260355147A1, “COMPOSITIONS COMPRISING TRIGONELLINE AND A UROLITHIN” (Amazentis SA, priority 2023, published 2026):

Columns and labels:
[1] = system: HSMM human primary skeletal muscle myoblasts; experiment: Mitochondrial respiration (oxygen consumption rate) in human primary skeletal muscle myoblasts HSMM (Seahorse XF96); type: cell-based; conditions: 24 hours, normalized over cellular DNA content
Description: Cells were treated as indicated with Urolithin A (UA) 6.25 uM and trigonelline (Trig) 500 uM, alone or in combination. DMSO 0.1% was used as control. Data are expressed as mean+/−SD. One-Way ANOVA, * p.val.<0.05.
A combined treatment of urolithin A and trigonelline was performed and mitochondrial respiration was measured in human primary skeletal muscle cells.
Mitochondrial respiration was measured as oxygen consumption rate on HSMM (LZ-CC-2580, Lonza), human primary skeletal muscle myoblasts was measured with a Seahorse XF96 extracellular flux analyzer. HSMMs were seeded at 3,500 cells/well in an XF96 cell culture microplate and cultured at 37 °C in a humidified atmosphere of 5% C02 in SKM-M Growth medium (AMSbio). […] Oxygen consumption rate was measured in Krebs Cycle medium (135 mM NaCl, KCL 3.6 mM, 0.5 mM NaH2PO4, 0.5 mM MgSO4, 10 mM HEPES, 5 mM NaHCO3) supplemented with 10 mM Glucose, 10 mM pyruvate and 2 mM Glutamine. Maximal respiration was monitored by injection of 6 μM FCCP in the cartridge. To normalize for differences in cell number across well, cellular DNA content was measured in the same microplate using the CyQuant NF kit (Thermofisher, C35006), following the manufacturer's instructions. Normalized mitochondrial respiration was then calculated as ratio between oxygen consumption rate and DNA content and expressed as fold change over the DMSO of the basal condition.

C2C12 myotubes = experiment: Mitochondrial respiration in C2C12 myotubes (Seahorse XF96, fatty acid oxidation analysis); type: cell-based, Mouse; conditions: 50 uM, 24 hours (FIG. 1)
Description: A combined treatment of urolithin A and trigonelline was performed and mitochondrial respiration was measured in rodent skeletal muscle cells.
Fatty acid oxidation analysis on C2C12 myotubes was measured with a Seahorse XF96 extracellular flux analyzer. C2C12s were seeded at 8,000 cells/well in an XF96 cell culture microplate. Once cells reached confluence, they were differentiated with DMEM (Gibco, 31966047) supplemented with 2% Horse serum, 1% PenStrep and 1% Hepes for 5 days. Cells were treated with UA 50 uM and Trigonelline 50 uM (Sigma, T5509) for 24 hours in substrate-limited media (Gibco, A1443001) supplemented with 0.5 mM glucose, 1 mM glutamine, 1% Oleic acid and 0.5 mM L-Carnitine. Maximal respiration was monitored by injection of 3 μM FCCP in the cartridge. Prior to the assay, cells were incubated in a Fatty acid oxidation medium (111 mM NaCl, 4.7 mM KCl, 1.25 mM CaCl2, 2 mM MgSO4, 1.2 mM NaH2PO4, 5 mM L-Carnitine, 5 mM Hepes, 2.5 mM Glucose) for 20 min, solution must be adjusted to pH 7.4 at 37 °C.

C2C12 muscle cell line = conditions: Ryu, D. et al. Nature Medicine 2016, 22, 879; cited from earlier work
muscle mass = conditions: in vivo; cited from earlier work
skeletal muscle cells = conditions: cited from earlier work
rodent tissues = conditions: in vivo; cited from earlier work
C. elegans = conditions: in vivo; cited from earlier work
HSMM myotubes = conditions: only at 1000 uM, 72 h, with simultaneous blocking of NAD+ salvage pathway with FK866; cited from earlier work
human cells = conditions: at this dose (50 uM); FIG. 1 of US 2022/0241259 A1; cited from earlier work

Row | SMILES | mitochondrial respiration ([1]; urolithin A alone, 6.25 uM) | mitochondrial respiration (C2C12 myotubes; urolithin A alone) | mitochondrial respiration (C2C12 muscle cell line) | muscle mass in rodents (muscle mass) | mitochondrial respiration ([1]; trigonelline alone, 500 uM) | NAD^+ levels in skeletal muscle cells (skeletal muscle cells) | mitochondrial respiration (C2C12 myotubes; trigonelline alone) | NAD^+ levels in rodent tissues (rodent tissues) | lifespan in C. elegans models (C. elegans) | mitochondrial respiration in HSMM myotubes (HSMM myotubes) | biological effect on NAD production in human cells (human cells)
1 | O=c1oc2cc(O)ccc2c2ccc(O)cc12 [Urolithin A, urolithin A] | induced mitochondrial respiration | induced mitochondrial respiration | induced mitochondrial respiration as shown previously in the C2C12 muscle cell line |  |  |  |  |  |  |  | 
2 | C[n+]1cccc(C(=O)[O-])c1 [trigonelline] |  |  |  | induce muscle mass | Mitochondrial respiration was also increased | help to increase NAD^+ levels | Mitochondrial respiration was also increased | help to increase NAD^+ levels | increase lifespan | improvement in mitochondrial respiration | not shown to have a significant biological effect on NAD production
